Source: patent US20250312497A1, “METHOD OF TREATING PROSTATE CANCER” (Novartis AG, priority 2022, published 2025)

System: PSMA-positive mCRPC participants
Assay: PSMAfore phase III: adverse events, serious adverse events, safety topics and deaths (safety set)
Assay type: in vivo, human
[1] = DCO 2 Oct 2022, safety set, preferred term
[2] = DCO 2 Oct 2022, safety set, system organ class
[3] = DCO 21 Jun 2023, ARDT prior to crossover
[4] = DCO 21 Jun 2023, most common AEs by PT (>10% in either arm)
[5] = DCO 21 Jun 2023, safety set, All Grades
[6] = DCO 21 Jun 2023, safety set, Grade >=3
[7] = Safety set, [[…]Lu]Lu-PSMA-617 N = 227, ARDT N = 232
[8] = Safety set, [[…]Lu]Lu-PSMA-617 N = 227, ARDT N = 232 (prior to crossover), CTCAE V5.0

In the case of `O=C([O-])CN1CCN(CC(=O)[O-])CCN(CC(=O)NCC2CCC(C(=O)N[C@@H](Cc3ccc4ccccc4c3)C(=O)NCCCC[C@H](NC(=O)N[C@@H](CCC(=O)O)C(=O)O)C(=O)O)CC2)CCN(CC(=O)[O-])CC1.[177Lu+3]` (stereo partly shown) [[177Lu]Lu-PSMA-617, lutetium (177Lu) vipivotide tetraxetan], the “On-treatment deaths: Coma” value [1] was 0 n (%), the “On-treatment deaths: Dyspnoea” value [1] was 0 n (%) and the “On-treatment deaths: Intestinal ischaemia” value [1] was 1 (0.4) n (%). The “On-treatment deaths: Sepsis” value [1] was 1 (0.4) n (%), the “On-treatment deaths: Cardiac disorders” value [2] was 1 (0.4) n (%) and the “On-treatment deaths: Gastrointestinal disorders” value [2] was 1 (0.4) n (%). For the same compound, the “On-treatment deaths: Infections and infestations” value [2] was 2 (0.9) n (%), the “On-treatment deaths: Nervous system disorders” value [2] was 0 n (%) and the “On-treatment deaths: Respiratory, thoracic and mediastinal disorders” value [2] was 0 n (%). The “AEs leading to discontinuation, Treatment-related” value [3] was 3.1%, the “Grade≥3 AEs, Treatment-related” value [3] was 11.0% and the “Serious AEs, Treatment-related” value [3] was 3.1%. It also gave an Anaemia [4] of 24.2%, an Arthralgia [4] of 18.9% and an Asthenia [4] of 31.7%. The Back pain [4] was 12.3%, the COVID-19 [4] was 16.3% and the Constipation [4] was 22.0%. The Decreased appetite [4] was 21.1%, the Diarrhoea [4] was 16.3% and the Dry mouth [4] was 57.3%. For the same compound, the Fatigue [4] was 22.9%, the Nausea [4] was 31.3% and the Oedema peripheral [4] was 8.4%. For the same compound, the Vomiting [4] was 11.5%, the Weight decreased [4] was 6.6% and the “AE preferred term: Anaemia” value [5] was 55 (24.2) n (%). For the same compound, the “AE preferred term: Arthralgia” value [5] was 43 (18.9) n (%), the “AE preferred term: Asthenia” value [5] was 72 (31.7) n (%) and the “AE preferred term: Back pain” value [5] was 28 (12.3) n (%). The “AE preferred term: COVID-19” value [5] was 37 (16.3) n (%), the “AE preferred term: Constipation” value [5] was 50 (22.0) n (%) and the “AE preferred term: Decreased appetite” value [5] was 48 (21.1) n (%). For the same compound, the “AE preferred term: Diarrhoea” value [5] was 37 (16.3) n (%), the “AE preferred term: Dry mouth” value [5] was 130 (57.3) n (%) and the “AE preferred term: Fatigue” value [5] was 52 (22.9) n (%). The “AE preferred term: Nausea” value [5] was 71 (31.3) n (%), the “AE preferred term: Oedema peripheral” value [5] was 19 (8.4) n (%) and the “AE preferred term: Vomiting” value [5] was 26 (11.5) n (%). The “AE preferred term: Weight decreased” value [5] was 15 (6.6) n (%), the “Adverse events (participants with at least one event)” value [5] was 223 (98.2) n (%) and the “Adverse events leading to discontinuation” value [5] was 13 (5.7) n (%). The “Adverse events leading to discontinuation, Treatment-related” value [5] was 7 (3.1) n (%), the “Adverse events leading to dose adjustment” value [5] was 8 (3.5) n (%) and the “Adverse events leading to dose interruption” value [5] was 27 (11.9) n (%). For the same compound, the “Adverse events requiring additional therapy” value [5] was 162 (71.4) n (%), the “Adverse events, Treatment-related” value [5] was 196 (86.3) n (%) and the “Fatal serious adverse events” value [5] was 4 (1.8) n (%). For the same compound, the “Fatal serious adverse events, Treatment-related” value [5] was 0 n (%), the Serious adverse events [5] was 46 (20.3) n (%) and the “Serious adverse events, Treatment-related” value [5] was 7 (3.1) n (%). For the same compound, the “AE preferred term: Anaemia” value [6] was 14 (6.2) n (%), the “AE preferred term: Arthralgia” value [6] was 0 n (%) and the “AE preferred term: Asthenia” value [6] was 1 (0.4) n (%). For the same compound, the “AE preferred term: Back pain” value [6] was 2 (0.9) n (%), the “AE preferred term: COVID-19” value [6] was 1 (0.4) n (%) and the “AE preferred term: Constipation” value [6] was 1 (0.4) n (%). For the same compound, the “AE preferred term: Decreased appetite” value [6] was 0 n (%), the “AE preferred term: Diarrhoea” value [6] was 0 n (%) and the “AE preferred term: Dry mouth” value [6] was 3 (1.3) n (%). For the same compound, the “AE preferred term: Fatigue” value [6] was 0 n (%), the “AE preferred term: Nausea” value [6] was 0 n (%) and the “AE preferred term: Oedema peripheral” value [6] was 0 n (%). The “AE preferred term: Vomiting” value [6] was 0 n (%), the “AE preferred term: Weight decreased” value [6] was 2 (0.9) n (%) and the “Adverse events (participants with at least one event)” value [6] was 78 (34.4) n (%). For the same compound, the “Adverse events leading to discontinuation” value [6] was 8 (3.5) n (%), the “Adverse events leading to discontinuation, Treatment-related” value [6] was 4 (1.8) n (%) and the “Adverse events leading to dose adjustment” value [6] was 3 (1.3) n (%). For the same compound, the “Adverse events leading to dose interruption” value [6] was 13 (5.7) n (%), the “Adverse events requiring additional therapy” value [6] was 48 (21.1) n (%) and the “Adverse events, Treatment-related” value [6] was 25 (11.0) n (%). For the same compound, the “Fatal serious adverse events” value [6] was 4 (1.8) n (%), the “Fatal serious adverse events, Treatment-related” value [6] was 0 n (%) and the Serious adverse events [6] was 41 (18.1) n (%). For the same compound, the “Serious adverse events, Treatment-related” value [6] was 6 (2.6) n (%), the “Serious adverse event Acute kidney injury, All Grades” value [7] was 2 (0.9) n (%) and the “Serious adverse event Acute kidney injury, Grade >=3” value [7] was 2 (0.9) n (%). The “Serious adverse event Anaemia, All Grades” value [7] was 4 (1.8) n (%), the “Serious adverse event Anaemia, Grade >=3” value [7] was 3 (1.3) n (%) and the “Serious adverse event COVID-19, All Grades” value [7] was 1 (0.4) n (%). For the same compound, the “Serious adverse event COVID-19, Grade >=3” value [7] was 1 (0.4) n (%), the “Serious adverse event Femur fracture, All Grades” value [7] was 2 (0.9) n (%) and the “Serious adverse event Femur fracture, Grade >=3” value [7] was 2 (0.9) n (%). For the same compound, the “Serious adverse event Haematuria, All Grades” value [7] was 0 n (%), the “Serious adverse event Haematuria, Grade >=3” value [7] was 0 n (%) and the “Serious adverse event Pain, All Grades” value [7] was 1 (0.4) n (%). For the same compound, the “Serious adverse event Pain, Grade >=3” value [7] was 1 (0.4) n (%), the “Serious adverse event Pneumonia, All Grades” value [7] was 1 (0.4) n (%) and the “Serious adverse event Pneumonia, Grade >=3” value [7] was 1 (0.4) n (%). For the same compound, the “Serious adverse event Sepsis, All Grades” value [7] was 3 (1.3) n (%), the “Serious adverse event Sepsis, Grade >=3” value [7] was 3 (1.3) n (%) and the “Serious adverse event Spinal cord compression, All Grades” value [7] was 2 (0.9) n (%). For the same compound, the “Serious adverse event Spinal cord compression, Grade >=3” value [7] was 2 (0.9) n (%), the “Serious adverse event Urinary retention, All Grades” value [7] was 1 (0.4) n (%) and the “Serious adverse event Urinary retention, Grade >=3” value [7] was 1 (0.4) n (%). The “Serious adverse event Urinary tract infection, All Grades” value [7] was 4 (1.8) n (%), the “Serious adverse event Urinary tract infection, Grade >=3” value [7] was 3 (1.3) n (%) and the “Serious adverse events: number of participants with at least one event, All Grades” value [8] was 46 (20.3) n (%). The “Serious adverse events: number of participants with at least one event, Grade >=3” value [8] was 41 (18.1) n (%).
